PMC12771125, “Compounds Reducing Human Sperm Motility as Potential Nonhormonal Contraceptives Identified Using a High-Throughput Phenotypic Screening Platform” (ACS Omega, 2025)
Values after ≈ are worked out from the molar mass of the structure shown. Where two headings read alike, the source gives them in different places.

Assays:
[1] = tested on: HepG2 cells; test: HepG2 cytotoxicity assay (resazurin, 72 h); format: cell-based, human; conditions: Homo sapiens, HepG2, 72 h; read-out: HepG2 pEC50 (converted)
Excerpt: Our overarching aims for investigating our chemical series and deciding which ones had the potential for further progression were to achieve adequate potency in our motility assay, suitable solubility, and minimal cytotoxicity in HepG2 cells. This third point was often the most challenging, as multiple series had cytotoxicity in HepG2 cells. This observation is perhaps not surprising; many potential targets in sperm cells can also be found in somatic cells. Our cytotoxicity assay is run with an incubation time of 72 h, to give time for gross cytotoxic effects to become apparent.
Compound dilution curves were plated directly using a Labcyte Echo 550 acoustic dispenser (125 nL) in 384-well white clear-bottom plates (Greiner). HepG2 cells (ATCCHepG2 HB-8065) were cultured in minimum essential medium (supplemented with glutamax) with 10% FCS and plated (25 μL) using a WellMate dispenser ([…]) and incubated for 72 h. Doxorubicin was used as a positive control drug. Resazurin was then added to each well at a final concentration of 45 μM, and fluorescence was measured using a PHERAstar LS (BMG Labtech) after 4 h of further incubation (excitation of 528 nm and emission of 590 nm). Raw data were normalized to controls and expressed as % growth.
Figure S2: Concentration-response curves from high throughput HepG2 viability assay. Each compound was tested in duplicate and the curves of each replicate are shown. The reported values in the tables are an average of the 2 pEC50 values obtained. […]
determine 0% effect, positive control used to determine 100% effect).
Hit compounds 1a, 6b and 7a were repurchased from commercial suppliers including enamine and […]

[2] = tested on: human sperm; test: Reduction of sperm motility (RSM) high-throughput phenotypic assay; format: cell-based; conditions: for EC50: Homo sapiens, reduction of progressive sperm motility relative to control
Protocol: Using our previously established phenotypic human sperm motility screening platform, we screened a large subset (62,621 compounds) of one of our in-house diversity libraries (National Phenotypic Screening Centre (NPSC) Diversity Set) (Figure A,B). Briefly, human sperm are collected, isolated from semen, distributed into 384-well plates with test compounds, time-lapse images of sperm movement are recorded using a high-content imager, and progressive motility parameters are calculated using custom data analysis software. Sperm motility is complicated, and the mechanisms underpinning its regulation are not fully understood. Progressive motility, which is a measurement of the movement of forward progression of sperm, is most closely linked to sperm quality, and the percentage of progressively motile sperm compared to control is therefore the parameter utilized during the work described in this paper. […]
We used an HTS screening platform to assess the motility of live human spermatozoa. The platform and its development are described in detail in Gruber et al. , and summarized below in brief. The platform was used to screen compound libraries specifically focusing on reduction in motility. Interesting compounds were examined in further detail as possible starting points for a medicinal chemistry program. The experimental design is illustrated in Figure .
Donors were local to the Dundee area, over the age of 18, and had no known fertility problems and normal sperm concentration, motility and semen characteristics according to WHO 2021 criteria. Special category personal data for donors, such as ethnic origin, was not recorded in accordance with ethical approval and UK GDPR. Samples were obtained by masturbation, after sexual abstinence of 2–5 days, and delivered to the research laboratory within one h of production. Samples were allowed to liquefy at 37 °C for 15–30 min prior to preparation by discontinuous density gradient centrifugation (DGC). […] A minimum of 3 prepared donor samples were routinely pooled to reduce donor-to-donor variability for primary screening assays. Pooled samples were incubated for 3 h at 37 °C under noncapacitating conditions.
In brief, screening batches of cells were transferred to a robotic platform (HighRes Biosolutions Inc.) and maintained during the screen at 37 °C at 5% CO2. Assay-ready 384-well plates containing compounds were prepared prior to the screen and filled with approximately 10,000 spermatozoa (20 μL) per well using a liquid handling system (MultiDrop Combi; ThermoFisher). These plates were incubated for 10 min prior to imaging. The HTS system utilized a Yokogawa CV7000 Cell Voyager high-throughput microscope to record time-lapse images from 2 positions in each well. An adaptation of a tracking algorithm, Trackpy v0.4.1 was utilized to track individual spermatozoa within each well and obtain kinematic parameters. Within the compound-test plates, DMSO was used as the vehicle control.
All steps were performed as previously described. , In summary, data from every compound well were normalized to those from in-plate DMSO controls (wells containing the same amount of DMSO as compound wells). Two positions were recorded in every well, and the average of those positions was used for calculating % of control (median value/DMSO median) × 100. Each plate contained 16 DMSO control wells. Median curvilinear velocity (VCL) was used as the primary readout for the NPSC Diversity Set screened at 6 μM, and percentage progressive motility (PM) was used for all other libraries screened. Hits from the primary screening were chosen based on the % change compared to the control. In these experiments, an RSM of ≥20% compared to negative controls (DMSO) was chosen as a cutoff for potential progression.
In a screening program of this scale, a significant number of compounds are likely to have a negative effect on sperm motility, but a number will show general toxicity. […]

[3] = Aqueous solubility; format: physicochemical
[4] = 10 min, 10 min incubation, reported <X (neg. log of top concentration) if largest reduction <70%, read-out: RSM pEC50 10 mins (converted)
[5] = 3 h incubation, reported <X if largest reduction <70%, read-out: RSM pEC50 3 hrs (converted)
[6] = 6 h incubation, reported <X if largest reduction <70%, read-out: RSM pEC50 6 hrs (converted)

Row | EC50 [2, 4] [µM] | EC50 [2, 5] [µM] | EC50 [2, 6] [µM] | solubility [3] [µM] | Structure (SMILES) | EC50 [1] [µM] | difference between pEC50 in the sperm motility assay and pEC50 in the HepG2 cytotoxicity assay [2] [log units]
1 | > 31.6 | > 31.6 | > 31.6 | 0.29 (≈ 0.107 µg/mL) | O=C(Nc1nc(-c2ccc(F)cc2F)cs1)Nc1ccc(F)cc1F [Compound 3f] | > 100 | 
2 | > 31.6 | > 31.6 | > 31.6 | 140 (≈ 36.7 µg/mL) | CC(C)NC(=O)Nc1nc(-c2ccccn2)cs1 [Compound 3j] | > 100 | 
3 | > 31.6 | > 31.6 | > 31.6 | 0.89 (≈ 0.265 µg/mL) | CC(C)c1csc(NC(=O)Nc2ccc(F)cc2F)n1 [Compound 3g] | > 100 | 
4 | > 31.6 | > 31.6 | > 31.6 | 210 (≈ 58.1 µg/mL) | OC1CCC(Nc2ccnc3cc(Cl)ccc23)CC1 (stereo not drawn) [Compound 5f] | > 100 | 
5 | > 31.6 | > 31.6 | > 31.6 | 73 (≈ 22.7 µg/mL) | NCCN(C(=O)c1ccc(F)cc1F)c1ccc(Cl)cc1 [Compound 1n] | > 100 | 
6 | > 31.6 | > 31.6 | > 31.6 | 5.5 (≈ 1.35 µg/mL) | Cc1ccc2sc(NC(=O)C3CC3)nc2c1C [Compound 4m] | > 100 | 
7 | > 31.6 | > 31.6 | > 31.6 | 4 (≈ 1.02 µg/mL) | O=C(Nc1nc2cc(F)c(F)cc2s1)C1CC1 [Compound 4l] | > 100 | 
8 | > 31.6 | > 31.6 | > 31.6 | 0.6 (≈ 0.173 µg/mL) | c1ccc(-c2cc(N3CCCCC3)c3ccccc3n2)cc1 [Compound 7b] | > 100 | 
9 | > 31.6 | > 31.6 | > 31.6 | 81 (≈ 20.2 µg/mL) | Cc1cc(Nc2ccccc2)n(-c2ccccc2)n1 [Compound 6c] | > 100 | 
10 | > 31.6 | > 31.6 | > 31.6 | 57 (≈ 16.5 µg/mL) | c1cncc(-c2cc(N3CCCCC3)c3ccccc3n2)c1 [Compound 7c] | > 100 | 
11 | > 31.6 | > 31.6 | > 31.6 | 240 (≈ 74.2 µg/mL) | NCCN(C(=O)c1ccccc1Cl)c1ccc(Cl)cc1 [Compound 1l] | 79.4 | 
12 | > 31.6 | > 31.6 | > 31.6 | 190 (≈ 49.8 µg/mL) | NC(=O)Nc1nc2c(Cl)c(Cl)ccc2s1 [Compound 4h] | 63.1 | 
13 | > 31.6 | > 31.6 | > 31.6 | 130 (≈ 39.4 µg/mL) | O=C(Nc1nc(-c2ccccn2)cs1)NC1CCNCC1 [Compound 3k] | > 100 | 
14 | 1 |  |  | 4.5 (≈ 1.47 µg/mL) | O=C(Nc1ccc([N+](=O)[O-])cc1Cl)c1cc(Cl)ccc1O [Compound 1a, Niclosamide, reference compound] | 3.16 | 0.5
15 | > 31.6 | > 31.6 | > 31.6 | 8.5 (≈ 2.16 µg/mL) | O=C(Nc1nc2c(F)c(F)ccc2s1)C1CC1 [Compound 4k] | > 100 | 
16 | 2.51 |  |  | 2.2 (≈ 1.03 µg/mL) | CNC(=O)c1ccccc1Nc1nc(Nc2ccc(N3CCOCC3)cc2OC)ncc1Cl [Compound 2b] | 2 | 
17 | > 31.6 | > 31.6 | > 31.6 | 5.1 (≈ 1.29 µg/mL) | O=C(Nc1nc2c(Cl)cccc2s1)C1CC1 [Compound 4i] | > 100 | 
18 | > 31.6 | > 31.6 | > 31.6 | 8.1 (≈ 2.39 µg/mL) | c1ccc2c(N3CCCCC3)cc(N3CCCCC3)nc2c1 [Compound 7e] | > 100 | 
19 | > 31.6 | > 31.6 | > 31.6 | 60 (≈ 13.1 µg/mL) | Nc1nc2c(Cl)c(Cl)ccc2s1 [Compound 4b] | 50.1 | 
20 | 5.01 | 3.16 | 3.98 | 2.3 (≈ 1.2 µg/mL) | CS(=O)(=O)Nc1cc(F)ccc1Nc1nc(Nc2ccc(C(=O)N3CCOCC3)cc2)ncc1Cl [Compound 2c] | 7.94 | 
21 | > 31.6 | > 31.6 | > 31.6 | 140 (≈ 41.6 µg/mL) | c1ccc2c(N3CCCCC3)cc(N3CCOCC3)nc2c1 [Compound 7d] | > 100 | 
22 | 3.98 | 2 | 1.58 | 27 (≈ 13.7 µg/mL) | CS(=O)(=O)Nc1cc(F)ccc1Nc1nc(Nc2ccc(CN3CCNCC3)cc2)ncc1Cl [Compound 2e] | 15.8 | 
23 | > 31.6 | > 31.6 | > 31.6 | 11 (≈ 3.23 µg/mL) | Clc1ccc2c(Nc3ccc4[nH]ccc4c3)ccnc2c1 [Compound 5k] | 12.6 | 
24 | > 31.6 | > 31.6 | > 31.6 | 6.7 (≈ 1.82 µg/mL) | Oc1ccc(Nc2ccnc3cc(Cl)ccc23)nc1 [Compound 5j] | > 100 | 
25 | > 31.6 | > 31.6 | 7.94 | 1.2 (≈ 0.399 µg/mL) | O=C(Nc1nc(-c2ccccn2)cs1)Nc1ccc(F)cc1F [Compound 3b, 1-(2,4-Difluorophenyl)-3-(4-(pyridin-2-yl)thiazol-2-yl)urea] | 7.94 | 
26 | 10 | 3.98 | 3.98 | 0.6 (≈ 0.194 µg/mL) | O=C(Nc1nc2c(Cl)c(Cl)ccc2s1)c1ccccc1 [Compound 4g] | 100 | 
27 | 10 | 5.01 | 3.98 | 4.2 (≈ 1.32 µg/mL) | O=C(Nc1nc2c(Cl)c(Cl)ccc2s1)C1CCCC1 [Compound 4f] | 50.1 | 
28 | > 25.1 | > 25.1 | 1.58 | 10 (≈ 2.89 µg/mL) | c1ccc(-c2cc(N3CCCCC3)c3ccccc3n2)nc1 [Compound 7a, 4-(Piperidin-1-yl)-2-(pyridin-2-yl)quinoline] | > 100 | 
29 | 12.6 | 20 | 10 | 53 (≈ 23.8 µg/mL) | NCCN(C(=O)c1ccc(Cl)cc1Cl)c1ccc(OCc2ccc(Cl)cc2)cc1 [Compound 1b, N-(2-Aminoethyl)-2,4-dichloro-N-(4-((4-chlorobenzyl)oxy)phenyl)benzamide] | 5.01 | 
30 | > 31.6 | > 31.6 | > 31.6 | 220 (≈ 59.8 µg/mL) | Oc1ccc(Nc2ccnc3cc(Cl)ccc23)cn1 [Compound 5i] | > 100 | 

Row | Structure (SMILES) | EC50 [2, 4] [µM] | EC50 [2, 5] [µM] | EC50 [2, 6] [µM] | solubility [3] [µM] | EC50 [1] [µM] | difference between pEC50 in the sperm motility assay and pEC50 in the HepG2 cytotoxicity assay [2] [log units]
31 | COc1ccc(Cl)cc1C(=O)Nc1ccc(C#N)c(Cl)c1 [Compound 1j] | > 20 |  |  | 0.19 (≈ 0.061 µg/mL) | > 100 | 
